Measured values as given in patent US20160115129A1, “NOVEL F[…] ACID ESTER COMPOUND AND SALT THEREOF” (TAIHO PHARMACEUTICAL CO., LTD., priority 2013, published 2016).

Experiments:
[1] = tested on: female SD rats; test: Urethral baseline pressure (intraurethral pressure) in anesthetized rats after oral administration; format: in vivo; conditions: 10 mg/kg oral, 11-week-old female SD rats, 30 minutes after 8 hours from administration, compared with solvent administration group (Student's t-test), FIG. 1
Experimental: The compounds of the present invention and a comparative compound were individually orally administered in an amount of 10 mg/kg to 11-week-old female SD rats (test substance-administration groups) and distilled water was orally administered as the control to 11-week-old female SD rats (solvent administration group, n=8). As the comparative compound, 4-piperidyl 2,2-diphenyl-2-propoxyacetate was used (Comparative Example).
Seven and a half hours after administration, each rat was anesthetized by intraperitoneal administration of 1.2 g/kg of urethane. Thereafter, the ureters and the area between the urethra and the bladder were ligated, and a vesical fistula catheter and a catheter for measuring intraurethral pressure were inserted and indwelled in the bladder and the urethra. […] Intravesical pressure and intraurethral pressure were recorded via a polygraph connected with the pressure transducers. […] Physiological saline was injected into the urethra using the micro syringe pump connected to the urethra at 3 mL/hr, and the changes in intraurethral pressure associated with the rhythmic contraction were recorded.
The mean values of the urethral baseline pressure for the solvent administration group and the test substance-administration groups were calculated, and the results were indicated as mean±SE. […]

melting point [°C] | SMILES | urethral baseline pressure [1] | urethral baseline pressure ([1]; listed as Comparative Example)
130 to 132 | Cl.O=C(COCCC(F)F)OC1CCNCC1 | – | –
98 to 100 | Cl.O=C(OC1CCNCC1)C(OCC(F)(F)C(F)(F)F)(c1ccccc1)c1ccccc1 | – | –
172 to 174 | Cl.O=C(OC1CCNCC1)C(OCC(F)F)(c1ccccc1)c1ccccc1 | – | –
128 to 130 | Cl.O=C(OC1CCNCC1)C(OCC(F)(F)C(F)F)(c1ccccc1)c1ccccc1 | – | –
– | CCCOC(C(=O)OC1CCNCC1)(c1ccccc1)c1ccccc1 [comparative compound, 4-piperidyl 2,2-diphenyl-2-propoxyacetate] | little effect | did not have a significant effect
135 to 136 | Cl.O=C(OC1CCNCC1)C(OCCCF)(c1ccccc1)c1ccccc1 | – | –
152 to 153 | Cl.O=C(OC1CCNCC1)C(OCCC(F)(F)F)(c1ccccc1)c1ccccc1 | – | –
